# Read-outs that look alike come from different tables or passages of the source.
# Key:
# [1] = biological target: T1, human NaCT (Homo sapiens, UniProt Q86YT5); experiment: [14C] citrate uptake in HepG2 cells endogenously expressing human NaCT; type: cell-based; settings: HepG2, human NaCT, citrate substrate
# T1 construct: citrate uptake into HepG2 cells, which endogenously expressed NaCT; host or cells: HepG2
# Text: (§1) We determined activity on human NaCT by measuring citrate uptake into HepG2 cells, which endogenously expressed NaCT [37] and for mouse Nact, using HEK293 cells recombinantly expressing mouse Nact (HEK-Nact). We cloned the mouse Slc13a5 cDNA encoding Nact as described previously.
# (§2) For radiometric [14C] citrate uptake assays, we used Cytostar-T plates (Perkin Elmer#RPNQ0166, Waltham, MA, USA). For each assay, we seeded 20,000 HepG2 cells per well on collagen coated 384-well Cytostar-T plates or 5000 HEK293 cells per well on ploy-D-lysine coated 384-well Cytostar-T plates. On the following day, we changed culture medium to assay buffer: 120 mM NaCl, 5.4 mM KCl, 0.8 mM MgSO4, 5 mM glucose, 1.8 mM CaCl2, 25 mM Hepes, 25 mM MES, pH 6.5 (human) and pH 7.5 (mouse). We preincubated cells with compounds at 37 °C for 20 min, after which we added [14C] citrate (3 µM for HEK cells and 10 µM for HepG2 cells) and incubated cells for 50 min at 37 °C. After cooling down for 15 min at 4 °C, we measured the counts using a Microbeta2 reader system (Perkin Elmer).
# [2] = biological target: T2, mouse Nact (Mus musculus, UniProt Q67BT3); experiment: [14C] citrate uptake in HEK293 cells recombinantly expressing mouse Nact; type: cell-based; settings: HEK293 mouse Nact
# T2 construct: expressed in transfected cells; host or cells: HEK293 (DSMZ), stably transfected, G418 selection
# T2 sequence (Q67BT3 1-572): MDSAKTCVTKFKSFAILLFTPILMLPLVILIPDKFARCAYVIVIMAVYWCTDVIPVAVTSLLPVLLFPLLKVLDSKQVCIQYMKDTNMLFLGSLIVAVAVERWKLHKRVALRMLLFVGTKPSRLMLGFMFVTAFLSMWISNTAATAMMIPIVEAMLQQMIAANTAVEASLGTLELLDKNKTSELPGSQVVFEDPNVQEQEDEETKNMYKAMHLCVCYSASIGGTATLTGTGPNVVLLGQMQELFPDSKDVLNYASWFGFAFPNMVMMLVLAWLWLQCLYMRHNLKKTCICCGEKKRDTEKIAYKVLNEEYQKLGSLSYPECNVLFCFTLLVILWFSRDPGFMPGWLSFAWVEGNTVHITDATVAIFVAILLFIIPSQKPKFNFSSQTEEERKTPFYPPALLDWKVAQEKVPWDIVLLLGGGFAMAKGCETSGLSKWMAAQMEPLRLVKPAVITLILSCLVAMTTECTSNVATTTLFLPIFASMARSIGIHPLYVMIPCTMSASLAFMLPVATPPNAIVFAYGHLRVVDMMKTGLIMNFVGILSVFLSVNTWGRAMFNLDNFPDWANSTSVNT
# Text: as §1, §2
# [3] = tested on: fatty acid synthesis in HepG2 cells; experiment: Fatty acid synthesis assay ([14C] citrate incorporation) in HepG2 cells; type: cell-based, human
# Protocol: We performed the fatty acid synthesis assay in HepG2 cells. We seeded cells into black clear-bottom 96-well plates (Corning 3340 cell plate) 75,000/well and incubated at 37 °C. After 16–24 h, we washed the plates once with 100 µL PBS (+CaCl2 +MgCl2) and added 50 µL assay medium ([…] containing 11 mM glucose, 10 mM HEPES, and 1 nM insulin) per well. Then, we applied test substances in assay medium (10 µL, 5% DMSO) and incubated for 20 min at 37 °C. Thereafter, we added 10 µL assay medium containing [14C] citrate (final concentration 50 µM) and PrestoBlue reagent (1× final concentration; Thermo Fisher Scientific, Waltham, MA, USA) and incubated for 180 min (37 °C, 5% CO2). We measured cell viability (ViewLux instrument, Perkin Elmer). We removed medium by vacuum aspiration and washed cells once with 100 µL PBS (+CaCl2 +MgCl2). We lysed cells with 50 µL lysis buffer (0.1 N NaOH, 0.1 % Triton X-100) and sealed plates with Tape Pads and vortexed. For the saponification reaction, we incubated plates for 16–24 h at 70 °C in a humidified environment. Then, we removed seals and added 200 µL 0.1 N HCl to neutralise the pH. We transferred 150 µL from each into corresponding wells of a 96-well Flash plate (Perkin Elmer) and sealed with TopSeal A (Perkin Elmer). We incubated plates for 4 h at 70 °C and for at least 3 h at room temperature in the dark. We measured [14C] radioactivity (microbeta2, Perkin Elmer). For control samples, we applied 50 mM unlabelled citrate or C75 (Sigma-Aldrich, St. Louis, MO, USA, C5490).
# T1 sequence (Q86YT5 whole entry): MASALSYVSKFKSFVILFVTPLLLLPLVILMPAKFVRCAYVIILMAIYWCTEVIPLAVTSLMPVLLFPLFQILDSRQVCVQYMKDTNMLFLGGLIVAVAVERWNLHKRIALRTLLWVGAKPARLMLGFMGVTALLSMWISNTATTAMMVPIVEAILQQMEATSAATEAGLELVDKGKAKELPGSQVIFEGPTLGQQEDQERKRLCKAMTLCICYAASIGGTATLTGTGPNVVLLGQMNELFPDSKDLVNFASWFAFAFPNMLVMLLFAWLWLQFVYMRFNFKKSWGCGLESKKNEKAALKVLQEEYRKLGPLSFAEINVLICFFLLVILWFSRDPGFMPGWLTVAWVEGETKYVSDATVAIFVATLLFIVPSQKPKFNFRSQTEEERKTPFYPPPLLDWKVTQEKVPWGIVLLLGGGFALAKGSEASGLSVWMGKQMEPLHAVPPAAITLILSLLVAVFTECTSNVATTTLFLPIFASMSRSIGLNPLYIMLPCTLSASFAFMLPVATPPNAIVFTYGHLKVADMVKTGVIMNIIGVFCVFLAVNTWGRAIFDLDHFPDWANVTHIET
IC50 [1] [nM],Effect on citrate uptake for mouse Nact [2],IC50 ([2]; read-out: IC50 HEK293 citrate uptake (mouse)) [nM],"IC50 ([3]; HepG2, read-out: IC50 HepG2 fatty acid synthesis) [nM]","IC50 ([3]; HepG2, [14C] citrate incorporation, read-out: IC50 fatty acid synthesis, HepG2) [nM]",Compound
78,no effects,> 50000,30,,"O=C(NCc1ccc(F)cc1)C1CCN(S(=O)(=O)c2cc(Cl)cc(Cl)c2)CC1 [BI01383298, reference compound]"
,,,,39000,"CC(C)(C)c1ccc(CC[C@@](O)(CC(=O)O)C(=O)O)cc1 [PF-06649298, reference compound]"

# — PMC9413491, “A Novel and Cross-Species Active Mammalian INDY (NaCT) Inhibitor Ameliorates Hepatic Steatosis in Mice with Diet-Induced Obesity” (Metabolites, 2022)
